Assay results: patent publication US12560591B2, “Methods of treatment with CD8 T cell-mediated immune therapy” (Providence Health & Services—Oregon, priority 2019, dated 2026)

Columns and labels:
Type in all cases: in vivo, mouse
MC38 tumors = assay: MC38 tumor model in ALK5^ΔCD8 mice, survival and tumor growth; details: addition of LY2157299 in ALK5^ΔCD8 mice with MC38 tumors, FIGS. 5B and 5C
Description: FIG. 5A is a schematic showing the treatment strategy in the MC38 tumor model. C57BL/6 Wild-type (n=6-9/group) and ALK5^ΔCD8 (n=4-10/group) mice were implanted subcutaneously with MC38 tumor cells followed four days later by injection of some groups with anti-CD8a mAb to specifically deplete CD8^+ T cells. In other groups, mice also received LY2157299 via oral gavage twice daily (150 mg/kg) for seven days. Survival of mice was monitored until day 90 (FIG. 5B). […] The number of tumors cured over the total number of tumor-bearing mice is shown in the top right of each graph. Data from a representative experiment is shown reflective of two independent experiments total. ***=p<0.001.
Animal studies and cell culture: C57BL/6, BALB/c, CD8Cre, Lyz2Cre, and Foxp3-eGFP-CreERT2 mice were purchased from the Jackson Laboratories (Bar Harbor, Maine). ALK5flox/flox mice were a generous gift from Andrew Weinberg (Providence Cancer Center). All transgenic mice were on C57BL/6 background. […] Tumors were measured 3×/week until they reached the survival end-point of 144 mm^2. […] Following single cell preparation, cells were washed and resuspended in FACS buffer (1×PBS, 1% BSA, 2 mM EDTA) and counted prior to FACS staining using a Guava EasyCyte cytometer (Millipore). […]
Whether the improved survival and radiosensitivity observed in ALK5^ΔCD8 mice was dependent on CD8^+ T cells was next evaluated. […]

[1] = system: tumor infiltrating immune cells; assay: FACS analysis of tumor-infiltrating immune cells after LY treatment
[2] = system: Smad2 (ALK5 signaling) in tumor tissue; assay: phospho-SMAD2 / CD8a co-immunofluorescence of tumor sections at day 14; details: day 14, one day post-LY treatment, specifically in CD8α^+ cells, FIG. 1C
Description: FIGS. 1A-1D are a series of panels showing that the TGFβR1 antagonist LY2157299 enhances chemo-radiation efficacy dependent on CD8α^+ cells in CT26 tumors. FIG. 1A is a treatment schema in the CT26 tumor model. Six to eight week old BALB/c mice were implanted subcutaneously in the left flank with 2×10^5 CT26 tumor cells. Seven days following implant, animals were randomized based on tumor size, and vehicle control or LY2157299 compound were administered by oral gavage twice daily every 12 hours at 150 mg/kg for 7 consecutive days. At day 14, some mice received five consecutive radiation treatments of 5 Gy targeted to tumor tissue along with 25 mg/kg injections of 5-fluorouracil (5FU) chemotherapy administered intraperitoneally on days 14, 16, and 18. LY treatment groups resumed BID oral dosing from days 21-27. Mean tumor growth (i) and survival (ii) were assessed three times per week up to 100 days or death (FIG. 1B). […] Arrows identify pSMAD2^+CD8^+ cells in vehicle mice. […] NS=not significant, *=p<0.05, **=p<0.01, ***=p<0.001.
Immunofluorescence: Human rectal cancer biopsies were fixed in 10% NBF overnight and mouse tumors were fixed in zinc fixative overnight prior to tissue processing and paraffin embedding followed by sectioning cut at 5 microns for immunofluorescent staining. […]
Production of TGFβ by cells within the tumor was evaluated.

[3] = LY-treated vs vehicle animals, day 14, FIG. 8E

Cc1cccc(-c2nn3c(c2-c2ccnc4ccc(C(N)=O)cc24)CCC3)n1 [LY2157299]
survival or tumor growth kinetics (MC38 tumors): no improvement in survival or tumor growth kinetics | tumor-infiltrating effector population (tSNE of flow cytometric data) ([1]; LY versus vehicle control treated animals, data not shown): enrichment of the tumor-infiltrating effector population | CD8^+ T cells infiltrating tumors [1, 3]: more CD8^+ T cells | macrophages and Tregs infiltrating tumors [1, 3]: fewer macrophages and Tregs | percentage of CD8^+ T cells expressing EOMES and Tbet ([1]; spleens, lymph nodes and CT26 tumors of LY-treated mice, FIG. 8F): increase | phosphorylation and nuclear translocation of Smad2 in tumor sections [2]: reduced phosphorylation and nuclear translocation
